Tests used:
[1] = system: parent elite stiff stalk inbred corn; assay: Postemergence herbicide application in greenhouse: fresh shoot weight and visual injury; type: in vivo
[2] = system: Heterozygous GAT-HRA corn; assay: as above; type: in vivo
[3] = system: GAT-HRA soybeans; assay: Postemergence herbicide treatment of soybeans in greenhouse, visual injury; type: in vivo, soybean; conditions: postemergence, glyphosate 8960, tribenuron-methyl 35, rimsulfuron 35 g/ha
Experimental: (§1) Young regenerated transgenic plants were sprayed with 1× glyphosate (1× rate of glyphosate is 1120 g/ha of glyphosate isopropylamine) to cull segregants. Four replications were performed for each treatment. Plants were then treated with various herbicides, including glyphosate and ALS-inhibitor herbicides.
(§2) Six soybean seeds from each variety to be assayed were planted 1 cm deep in 5.5 (13.97 cm) inch square plastic container of a synthetic growth medium. […] When possible, containers were thinned to two uniform plants. Non-transgenic lines were thinned to two uniform plants per container.
(§3) Results are expressed below in Table 11 as the mean of four replications.

[4] = system: Wild Type soybeans (Jack); assay: as above; type: in vivo, soybean; conditions: postemergence, glyphosate 8960, tribenuron-methyl 35, rimsulfuron 35 g/ha
Experimental: as §1, §2, §3

[5] = system: STS ® soybeans; assay: as above; type: in vivo, soybean
Text: When possible, containers were thinned to two uniform plants.

[6] = system: GAT-HRA transgenic cotton plants; assay: Greenhouse over the top herbicide spray of cotton; type: in vivo, Gossypium hirsutum; conditions: glyphosate 1.5 lb acid equivalent per acre at 4-6 leaf stage; 14 days after application
Text: (§4) Transformed cotton plants were rooted and then transferred to soil for further growth. Plants were then subjected to herbicide spray treatments in a greenhouse. […] Untransformed Coker 312 control plants were dead 2 weeks after glyphosate application. […] Plants transformed with both GAT and HRA were further subjected to an “over the top” application of the sulfonylurea herbicide rimsulfuron at a rate of 16 g active ingredient/hectare. […] In further experiments 32 g ai/ha rimsulfuron were applied to the cotton.

[7] = system: Untransformed Coker 312 cotton; assay: Greenhouse over the top herbicide spray of cotton; type: in vivo, Gossypium hirsutum; conditions: glyphosate 1.5 lb ae/acre, 2 weeks after application; rimsulfuron 16 g active ingredient/hectare without glyphosate
Text: as §4

[8] = system: non-transformed GS3 embryos; assay: Glyphosate kill curve on culture media; type: cell-based, maize; conditions: about 40 days culture
Experimental: A glyphosate kill curve was established by testing non-transformed embryos response on media with different levels of glyphosate. GS3 embryos were isolated from an immature ear and placed onto media containing glyphosate at 0.0, 0.5, 1.0, and 2.0 mM. After about 40 days culture, the response of the embryos were observed and recorded. Similarly, infected GS3 embryos with the GAT construct were placed onto media containing glyphosate at 0.0, 0.5, 1.0, and 2.0 mM. After about 40 days culture, the response of the infected embryos were observed and recorded (FIG. 7).

[9] = system: Non-glyphosate resistant Conyza (Welgevallen-paraquat resistant); assay: Control of hairy fleabane by glyphosate, metsulfuron-methyl and two additives; type: in vivo, Conyza bonariensis; conditions: glyphosate on its own; 10-15 leaf stage
Experimental: This example included the same treatments as used in Example 11, except the treatments were carried out on a glyphosate sensitive biotype of Kleinskraalhans (Conyza bonariensis). […] In this example, however, ammonium sulfate-based adjuvant (ADD-UP®) preformed better than bispyribac-sodium (VELOCITY®) with the mixture.
• Biotype: Non-glyphosate resistant Conyza (Welgevallen-paraquat resistant) • Growth Stage: 10-15 leaf stage • Condtions: Cool and sunny • Volume rate: 200 L ha^−1 • glyphosate (ROUNDUP): 360 g a.i. L^−1

[10] = Zea mays, post-emergence, […], read-out: % Visual Injury

## O=C(O)CNCP(=O)(O)O [Glyphosate, N-phosphonomethylglycine]
[1]; [10]
  pest or weed control at 200 g/ha: 100%
[1]; postemergence, 200 g/ha (glyphosate 3472 g ae/ha, glufosinate ammonium 1870 g/ha), weighed 2 weeks after treatment, mean of four replications, untreated 76.4 g
  Fresh Weight: 1.0 g
[2]; [10]
  pest or weed control at 200 g/ha: 10%
[2]; postemergence, 200 g/ha (glyphosate 3472 g ae/ha, glufosinate ammonium 1870 g/ha), weighed 2 weeks after treatment, mean of four replications, untreated 98.8 g
  Fresh Weight: 97.4 g
[3]; event 59, mean
  % Visual Injury: 38%
[3]; event 59 line 21
  % Visual Injury: 40%
[3]; event 59 line 28
  % Visual Injury: 37%
[3]; event 60, mean
  % Visual Injury: 15%
[3]; event 60 line 07
  % Visual Injury: 19%
[3]; event 60 line 11
  % Visual Injury: 11%
[3]; event 60 line 22
  % Visual Injury: 11%
[3]; event 60 line 35
  % Visual Injury: 9%
[3]; event 60 line 41
  % Visual Injury: 13%
[3]; event 60 line 46
  % Visual Injury: 20%
[3]; event 60 line 70
  % Visual Injury: 9%
[3]; event 60 line 75
  % Visual Injury: 14%
[3]; event 60 line 77
  % Visual Injury: 19%
[3]; event 60 line 79
  % Visual Injury: 18%
[3]; event 60 line 82
  % Visual Injury: 20%
[3]; event 60 line 84
  % Visual Injury: 22%
[3]; event 61, mean
  % Visual Injury: 20%
[3]; event 61 line 02
  % Visual Injury: 10%
[3]; event 61 line 02B
  % Visual Injury: 10%
[3]; event 61 line 05
  % Visual Injury: 11%
[3]; event 61 line 14
  % Visual Injury: 10%
[3]; event 61 line 18
  % Visual Injury: 10%
[3]; event 61 line 24
  % Visual Injury: 60%
[3]; event 61 line 33
  % Visual Injury: 84%
[3]; event 61 line 34
  % Visual Injury: 23%
[3]; event 61 line 47
  % Visual Injury: 15%
[3]; event 61 line 49
  % Visual Injury: 9%
[3]; event 61 line 51
  % Visual Injury: 10%
[3]; event 61 line 60
  % Visual Injury: 16%
[3]; event 61 line 62
  % Visual Injury: 6%
[3]; event 61 line 99
  % Visual Injury: 10%
[3]; event 64, mean
  % Visual Injury: 14%
[3]; event 64 line 41
  % Visual Injury: 20%
[3]; event 64 line 47
  % Visual Injury: 10%
[4]; Wild Type line 82
  % Visual Injury: 100%
[4]; Wild Type line Jack
  % Visual Injury: 100%
[4]; Wild Type, mean
  % Visual Injury: 100%
[5]; STS ® line 25, glyphosate 8960, tribenuron-methyl 35, rimsulfuron 35 g/ha
  % Visual Injury: 100%
[5]; STS ® line 46, glyphosate 8960, tribenuron-methyl 35, rimsulfuron 35 g/ha
  % Visual Injury: 100%
[5]; STS ®, mean, glyphosate 8960, tribenuron-methyl 35, rimsulfuron 35 g/ha
  % Visual Injury: 100%
[6]
  transgenic plants showing no deleterious symptoms: approximately 50%
[7]
  damage to untransformed control plants: dead
[8]; media containing 1.0 and 2.0 mM glyphosate
  callus growth of embryos: very little callus growth
[8]; medium with 0.5 mM glyphosate
  embryos showing callus initiation: about half
[9]
  plants killed: 1 out of 16
  plants killed, percentage in brackets: 12%
